# From patent publication US20180237441A1, “Chemical Compounds” (GlaxoSmithKline Intellectual Property (No.2) Limited, priority 2015, published 2018)
# pIC50: −log10 of the molar value.
# Target: T1, PERK (Homo sapiens, UniProt Q9NZJ5)
# T1 sequence (Q9NZJ5 30-1116): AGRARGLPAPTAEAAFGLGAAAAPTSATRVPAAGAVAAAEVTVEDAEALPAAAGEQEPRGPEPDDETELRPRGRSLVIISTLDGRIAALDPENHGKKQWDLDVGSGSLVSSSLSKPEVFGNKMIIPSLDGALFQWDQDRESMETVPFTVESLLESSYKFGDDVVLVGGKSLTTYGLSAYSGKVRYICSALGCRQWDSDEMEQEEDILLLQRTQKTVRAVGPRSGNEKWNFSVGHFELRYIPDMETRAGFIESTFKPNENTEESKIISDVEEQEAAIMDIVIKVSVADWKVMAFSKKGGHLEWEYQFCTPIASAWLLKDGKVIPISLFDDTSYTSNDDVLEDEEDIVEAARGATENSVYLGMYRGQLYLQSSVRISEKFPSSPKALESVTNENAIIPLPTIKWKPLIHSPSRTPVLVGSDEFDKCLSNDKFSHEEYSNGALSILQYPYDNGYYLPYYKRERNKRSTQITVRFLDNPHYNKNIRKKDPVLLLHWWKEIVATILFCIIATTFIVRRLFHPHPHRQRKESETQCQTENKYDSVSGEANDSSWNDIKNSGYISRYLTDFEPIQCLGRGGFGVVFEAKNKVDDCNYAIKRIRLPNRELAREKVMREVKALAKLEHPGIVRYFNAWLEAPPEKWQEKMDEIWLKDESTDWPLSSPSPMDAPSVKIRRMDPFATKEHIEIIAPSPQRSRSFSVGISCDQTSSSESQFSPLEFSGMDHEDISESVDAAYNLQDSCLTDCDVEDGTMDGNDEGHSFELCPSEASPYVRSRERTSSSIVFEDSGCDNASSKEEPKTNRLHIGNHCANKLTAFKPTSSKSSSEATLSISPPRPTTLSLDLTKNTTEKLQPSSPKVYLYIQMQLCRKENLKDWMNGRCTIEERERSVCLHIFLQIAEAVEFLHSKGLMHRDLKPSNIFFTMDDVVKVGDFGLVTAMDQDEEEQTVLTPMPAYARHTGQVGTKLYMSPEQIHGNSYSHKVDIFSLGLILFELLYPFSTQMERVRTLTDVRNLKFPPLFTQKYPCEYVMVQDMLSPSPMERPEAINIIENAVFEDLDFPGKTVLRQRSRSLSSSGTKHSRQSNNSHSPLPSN
# Test: PERK enzyme assay (HTRF)
# Type: biochemical
# Conditions: 500 μM ATP; at least one experimental run; read-out: PERK Enzyme (500 μM ATP) IC50
# In short: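 HTRF read-out after 2 h of EDTA-quenched reactions, detecting phospho-eIF2α with Eu/APC reagents, gave IC50 values. Reaction: 0.75 nM GST-PERK, 30–60 min compound pre-incubation (max 1% DMSO), then 60 min with 40 nM biotin-eIF2α and 500 μM ATP, HEPES pH 7.5 buffer.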
row,pIC50,SMILES
1,5.44,"Cn1cc(-c2ccc(N3CC(c4cc(F)ccc4F)N(Cc4ccccc4)C3=O)cc2F)c2c(N)ncnc21 (centres unmarked) [Example 20, 1-(4-(4-amino-7-methyl-7H-pyrrolo[2,3-d]pyrimidin-5-yl)-3-fluorophenyl)-3-benzyl-4-(2,5-difluorophenyl)imidazolidin-2-one]"
2,7.13,"CN1C(=O)N(c2ccc(-c3cn(C)c4ncnc(N)c34)c(F)c2)CC1c1cc(F)cc(F)c1 (centres unmarked) [Example 25, 1-(4-(4-amino-7-methyl-7H-pyrrolo[2,3-d]pyrimidin-5-yl)-3-fluorophenyl)-4-(3,5-difluorophenyl)-3-methylimidazolidin-2-one]"

# Same assay, conditions: PERK Enzyme (500 μM ATP) IC50; at least one experimental run; read-out: PERK Activity
row,SMILES,pIC50
1,"CCN1C(=O)N(c2ccc(-c3cn(C)c4nc(C)nc(N)c34)c(F)c2)CC1c1cc(F)ccc1F (centres unmarked) [Example 19, 1-(4-(4-amino-2,7-dimethyl-7H-pyrrolo[2,3-d]pyrimidin-5-yl)-3-fluorophenyl)-4-(2,5-difluorophenyl)-3-ethylimidazolidin-2-one]",< 6.00
2,"Cn1cc(-c2ccc(N3CC(c4cc(F)ccc4F)N(Cc4ccccc4)C3=O)cc2F)c2c(N)ncnc21 (centres unmarked) [Example 20, 1-(4-(4-amino-7-methyl-7H-pyrrolo[2,3-d]pyrimidin-5-yl)-3-fluorophenyl)-3-benzyl-4-(2,5-difluorophenyl)imidazolidin-2-one]",< 6.00
3,"CCN1C(=O)N(c2ccc(-c3cn(C)c4ncnc(N)c34)c(F)c2)CC1c1cccc(Cl)c1F (centres unmarked) [Example 22, 1-(4-(4-amino-7-methyl-7H-pyrrolo[2,3-d]pyrimidin-5-yl)-3-fluorophenyl)-4-(3-chloro-2-fluorophenyl)-3-ethylimidazolidin-2-one]",6.00 to 7.00
4,"CCN1C(=O)N(c2ccc(-c3cn(C)c4ncnc(N)c34)c(F)c2)CC1c1ccc(F)cc1F (centres unmarked) [Example 23, 1-(4-(4-amino-7-methyl-7H-pyrrolo[2,3-d]pyrimidin-5-yl)-3-fluorophenyl)-4-(2,4-difluorophenyl)-3-ethylimidazolidin-2-one]",6.00 to 7.00
5,"CN1C(=O)N(c2ccc(-c3cn(C)c4ncnc(N)c34)c(F)c2)CC1c1ccc(F)cc1F (centres unmarked) [Example 24, 1-(4-(4-amino-7-methyl-7H-pyrrolo[2,3-d]pyrimidin-5-yl)-3-fluorophenyl)-4-(2,4-difluorophenyl)-3-methylimidazolidin-2-one]",6.00 to 7.00
6,"CN1C(=O)N(c2ccc(-c3cn(C)c4ncnc(N)c34)c(F)c2)CC1c1cccc(Cl)c1F (centres unmarked) [Example 26, 1-(4-(4-amino-7-methyl-7H-pyrrolo[2,3-d]pyrimidin-5-yl)-3-fluorophenyl)-4-(3-chloro-2-fluorophenyl)-3-methylimidazolidin-2-one]",6.00 to 7.00

# Next, values leading:
row,pIC50,SMILES
1,> 7.00,"Cc1nc(N)c2c(-c3ccc(N4CC(c5cc(F)ccc5F)N(C)C4=O)cc3F)cn(C)c2n1 (centres unmarked) [Example 15, 1-(4-(4-amino-2,7-dimethyl-7H-pyrrolo[2,3-d]pyrimidin-5-yl)-3-fluorophenyl)-4-(2,5-difluorophenyl)-3-methylimidazolidin-2-one]"
2,6.00 to 7.00,"CN1C(=O)N(c2ccc(-c3cn(C)c4ncnc(N)c34)c(F)c2)CC1c1cc(F)cc(Cl)c1 (centres unmarked) [Example 16, 1-(4-(4-amino-7-methyl-7H-pyrrolo[2,3-d]pyrimidin-5-yl)-3-fluorophenyl)-4-(3-chloro-5-fluorophenyl)-3-methylimidazolidin-2-one]"
3,6.00 to 7.00,"CCN1C(=O)N(c2ccc(-c3cn(CC(F)F)c4ncnc(N)c34)c(F)c2)CC1c1cc(F)ccc1F (centres unmarked) [Example 17, 1-(4-(4-amino-7-(2,2-difluoroethyl)-7H-pyrrolo[2,3-d]pyrimidin-5-yl)-3-fluorophenyl)-4-(2,5-difluorophenyl)-3-ethylimidazolidin-2-one]"
4,6.00 to 7.00,"CN1C(=O)N(c2ccc(-c3cn(C)c4ncnc(N)c34)c(F)c2)CC1c1cc(F)ccc1F (centres unmarked) [Example 18, 1-(4-(4-amino-7-methyl-7H-pyrrolo[2,3-d]pyrimidin-5-yl)-3-fluorophenyl)-4-(2,5-difluorophenyl)-3-methylimidazolidin-2-one]"
5,6.00 to 7.00,"Cn1cc(-c2ccc(N3CC(c4cc(F)ccc4F)NC3=O)cc2F)c2c(N)ncnc21 (centres unmarked) [Example 21, 1-(4-(4-amino-7-methyl-7H-pyrrolo[2,3-d]pyrimidin-5-yl)-3-fluorophenyl)-4-(2,5-difluorophenyl)imidazolidin-2-one]"
6,> 7.00,"CN1C(=O)N(c2ccc(-c3cn(C)c4ncnc(N)c34)c(F)c2)CC1c1cc(F)cc(F)c1 (centres unmarked) [Example 25, 1-(4-(4-amino-7-methyl-7H-pyrrolo[2,3-d]pyrimidin-5-yl)-3-fluorophenyl)-4-(3,5-difluorophenyl)-3-methylimidazolidin-2-one]"
